Reference: paper PMC8199001, “Design, Synthesis, and Biological Evaluation of Novel 6H-Benzo[c]chromen-6-one Derivatives as Potential Phosphodiesterase II Inhibitors” (International Journal of Molecular Sciences, 2021)
Entries after “also recorded” stand apart in the source; their conditions may differ.

What was measured:
PDE2 = PDE2 (Homo sapiens, UniProt O00408); assay: In vitro PDE2 enzymatic inhibition assay (Bio-cAMP substrate, AlphaScreen detection); assay type: biochemical;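 further: enzyme reaction run 0.5 h, then anti-cAMP acceptor and streptavidin donor beads added for 1 h in the dark before plate reading, compounds serially diluted from DMSO stock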
Chain of PDE2 (O00408 whole entry): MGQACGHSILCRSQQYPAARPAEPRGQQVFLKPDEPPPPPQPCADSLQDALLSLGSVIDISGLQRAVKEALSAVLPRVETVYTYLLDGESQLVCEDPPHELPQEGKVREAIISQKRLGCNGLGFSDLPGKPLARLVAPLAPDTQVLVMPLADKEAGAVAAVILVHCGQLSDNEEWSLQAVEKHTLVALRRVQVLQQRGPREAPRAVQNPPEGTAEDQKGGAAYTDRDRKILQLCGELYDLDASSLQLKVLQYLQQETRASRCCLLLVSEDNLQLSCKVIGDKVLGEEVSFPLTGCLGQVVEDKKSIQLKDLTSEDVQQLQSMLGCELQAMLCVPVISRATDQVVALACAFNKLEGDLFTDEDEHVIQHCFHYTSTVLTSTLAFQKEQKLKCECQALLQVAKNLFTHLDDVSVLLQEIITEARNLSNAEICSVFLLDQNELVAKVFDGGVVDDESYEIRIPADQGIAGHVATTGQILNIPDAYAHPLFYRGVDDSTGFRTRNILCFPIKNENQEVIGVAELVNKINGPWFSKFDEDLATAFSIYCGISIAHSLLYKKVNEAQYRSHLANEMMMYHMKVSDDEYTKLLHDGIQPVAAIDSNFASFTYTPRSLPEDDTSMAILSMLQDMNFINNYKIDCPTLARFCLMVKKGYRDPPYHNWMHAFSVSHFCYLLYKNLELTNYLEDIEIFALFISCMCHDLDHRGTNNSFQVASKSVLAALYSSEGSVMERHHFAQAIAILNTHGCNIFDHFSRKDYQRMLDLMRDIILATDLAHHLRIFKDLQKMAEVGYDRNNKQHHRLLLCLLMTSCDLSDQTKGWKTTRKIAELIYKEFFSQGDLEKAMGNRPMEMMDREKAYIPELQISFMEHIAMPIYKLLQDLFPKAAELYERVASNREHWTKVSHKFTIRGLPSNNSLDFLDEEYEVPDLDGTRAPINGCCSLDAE
Description: Preparation of 1*Rection Buffer: we took 1 mL 10*Rection Buffer, added 9 mL ultra-pure water to swirl and mix well, and put it on ice; preparation of PDE2 solution: 210 μL of 1*Rection Buffer were added into a centrifuge tube, then 30 μL PDE2 were added, mixed well, equal to 8-times dilution, and placed on ice; preparation of compound solution with gradient concentration: DMSO was used as the solvent to prepare 10 mM compound solution, and then diluted with 1*Rection Buffer.
We took 2 μL of the diluted compound solution of each concentration into the microplate, added 4 μL PDE2 solution, numbered them A1–A9, added 2 μL 1*Rection Buffer and 4 μL PDE2 into A10, added 2 μL compound solution and 4 μL 1*Rection Buffer to A11, added 6 μL 1*Rection Buffer to A13, and ensured the three groups are parallel to each other. […] The reaction time was 0.5 h in the microporous plate thermostatic oscillator.
Anti-Camp Alohascreen Acceptor and Streptavidin Coated Donor Bead were purchased from Perkin Elmer Company according to response volume: 1* Immunoassay Buffer 549.32 μL and 3.70 μL anti-cAMP AlohaScreen Acceptor were collected under dark conditions. We took 1.98 μL Streptavidin coated Donor Bead, mixed well, added 15 μL mixture to each well after 1 h reaction, and reacted it in the dark for 1 h. After the reaction, we tested it with multilabel microplate detector.

HT-22 cells = assay: Protection of HT-22 cells against corticosterone-induced neurotoxicity (cell viability); assay type: cell-based
Excerpt: Corticosterone can induce PDE2A, PDE3B, PDE4A, PDE4D, PDE10, and PDE11 expression in HT-22 cells, which results in significant cell lesion. Thus, corticosterone-induced HT-22 neurotoxicity was generally employed as classical cell model to screen PDE-inhibitors for curing neurodegenerative disease, such as AD and PD.
To determine whether compound 1f could promote neuron proliferation and protect HT-22 cells against corticosterone-induced neurotoxicity by PDE2 inhibition, the viability of HT-22 cells was measured in the presence of 100 μM corticosterone (positive control), corticosterone absence (control), and different concentrations of 1f.
We added 943 µL of DMSO solution to 8.2 mg of dexamethasone acetate to obtain a 20 mM stock solution, froze it at −20 °C, and diluted it to 2 mM with serum-containing medium before use. The test compound was dissolved in DMSO to obtain a 20 mM stock solution and stored at −20 °C. Diluted with serum-containing medium to a concentration of 2 × 100, 2 × 50, 2 × 25, 2 × 12.5, 2 × 6.25, 2 × 3.125 μM before use.
After resuscitation, HT-22 cells were cultured in DMEM medium (containing 10% FBS) at 37 °C with 5% CO2. After the cells grew to more than 80% cell fusion, we passaged and seeded the plate, and the density of each well should be 10,000 cells/100 μL/well and cultured for 24 h. After the cells adhered to the wall, drug intervention was given.
10 µL solution of 2 mM dexamethasone acetate was cultured at 37 °C for 30 min. 100 µL drug solution of 2 × 100, 2 × 50, 2 × 25, 2 × 12.5, 2 × 6.25, and 2 × 3.125 μM were added to make the final concentration of dexamethasone acetate 100 μM, and the final concentrations of the drug were 100, 50, 25, 12.5, 6.25, 3.125 μM. After preparation, it took another 24 h to continue the culture. […]
After the incubation, 50 µL of MTT was added to each well, and it needed another 4 h to incubate. […] Finally, the wavelength A 490 was measured. The data were expressed as mean ± sd (n = 5), and one-way anova analysis of variance was used for data statistics; p < 0.05 is defined as a significant difference.

CCCCOc1ccc2c(c1)oc(=O)c1ccccc12 [Compound 1f, 3-butoxy-6H-benzo[c]chromen-6-one]
melting point: 53.6 to 55.5 °C
PDE2 inhibitory activity (result in words) (PDE2; enzyme level): good PDE2 inhibitory activity
IC50 (PDE2; in vitro, Bio-cAMP as substrate, mean of at least three experiments): 3.67 ± 0.47 µM
Cell viability of HT-22 cells exposed to corticosterone (result in words) (HT-22 cells; 100 μM corticosterone, compound 6.25~25 μM, 24 h, dose-dependent): protected cells against corticosterone (CORT)-induced cytotoxicity in a concentration-dependent manner; also recorded: significantly increased cell viability; also recorded: protect HT-22 cells from corticosterone-induced death
Best concentration for increasing HT-22 cell viability (HT-22 cells; 100 μM corticosterone, p < 0.01): 12.5 µM
Protective effect on HT-22 cells compared with BAY 60-7550 (HT-22 cells; comparison with BAY 60-7550 at 1.0 μM): similar; also recorded: comparable activity
